# Where “and” joins values, the source holds several entries; their conditions need not be identical. Equal entries are not always repeated. Where two headings read alike, the source gives them in different places.
# Assays:
# [1] = test system: Escherichia coli WP2 uvrA pKM101; assay: Bacterial reverse mutation test; type: cell-based; settings: up to 5000 μg/plate; with and without S-9
# Experimental: (§1) These conditions included treatments at concentrations up to 5000 μg/plate (the maximum recommended concentration according to current regulatory guidelines), in the absence and in the presence of a rat liver metabolic activation system (S-9).
# [2] = test system: Salmonella typhimurium TA98, TA100, TA1535 and TA1537; assay: Bacterial reverse mutation test; type: cell-based; settings: up to 5000 μg/plate; with and without S-9
# Experimental: as §1
# [3] = Pharmacokinetics of 5-MeO-DMT and bufotenine after single inhaled dose; type: in vivo, human; settings: for Cmax: human, plasma, inhaled or intranasal, inhalation, n=8, read-out: Median Cmax
# Experimental: Blood samples were obtained at 1; 2; 4; 7; 10; 15; 20; 30; 45 min and 1; 1.5; 2; 3; 4 hours after administration.
# PK parameters were generated by algebraic analysis of the concentration versus time plots for each individual. The analysis was carried out using the software Phoenix WinNonlin 6.3.
# [4] = test system: patients with postpartum depression (PPD); assay: Clinical trial of inhaled 5-MeO-DMT in postpartum depression; type: in vivo, human; settings: for BIMF domain Adjustment score / BIMF domain Infant Care score: max 12; for BIMF domain Infant Care score: Day 0 12; for BIMF domain Management score: max 36; for BIMF domain Psychological Well-being score: max 60; for BIMF TOTAL score: possible total 120; for Time to clinical remission after administration: IDR 6 mg then 12 mg
# Excerpt: The patient completed all planned visit days.
# [5] = LC-MS/MS of 5-MeO-DMT, bufotenine and 5-MIAA in urine, serum and breastmilk of lactating PPD patient; infant exposure estimates; settings: for Breastmilk concentration / Serum concentration / Urine concentration: second patient
# Excerpt: When determining the potential impact of maternal drug administration on a breastfed infant, it is standard practice to calculate the Relative Infant Dose (RID) (Bennett, P. N., and L. J. Notarianni. “Risk from drugs in breast milk: an analysis by relative dose.” Br J Clin Pharmacol 42.5 (1996): P673-4). The RID is the dosage (in μg/kg/day) the infant is exposed to by the intake of breast milk, divided by the dosage (in μg/kg/day) the mother receives.
# Using estimates for daily intake of breast milk and the number of feeds as well as the measured breast milk concentrations the exposure of the infant can be determined.
# For example, a published estimate for daily intake of breast milk as a function of infant weight is 150 ml/kg/day. To model the exposure, it is assumed that an infant of 5 kg is fed three times over 24 hours, receiving 250 ml breast milk each time.
# The second patient was lactating, and, per the clinical trial protocol, breastmilk samples were collected pre-dosing and at multiple timepoints after administration of the last dose. […] Similar analyses were carried out on patient serum and urine samples.
# [6] = In vitro binding of 5-MeO-DMT to plasma proteins, high throughput dialysis; type: in vitro ADME
# Experimental: Following evaluation of the equilibration data, plasma protein binding was investigated at nominal concentrations of 0.1, 1 and 10 μM using a 4-hour dialysis time. […]
# [7] = second patient, Day 7 (visit on day 5)
# [8] = female, human, breast milk, inhaled
structure (smiles),measurement,setting,value
COc1ccc2[nH]cc(CCN(C)C)c2c1 [5-MeO-DMT],Mutation induction,[1],did not induce mutation
same,Mutation induction,[2],did not induce mutation
same,Detectability in plasma,"[3]; 3 hours after inhalation, 6, 12, 18 mg",no longer detectable
same,Cmax,[3]; 6 mg group,11.8 ng/mL
same,Cmax,[3]; 12 mg group,22.9 ng/mL
same,Cmax,[3]; 18 mg group,38.5 ng/mL
same,Accumulation upon repeated administration,[3]; repeated administration within 1 to 4 hours,No accumulation
same,BIMF TOTAL Δ (Day 7),[4]; first patient,13
same,BIMF domain Adjustment Δ (Day 7),[4]; first patient,1
same,BIMF domain Infant Care Δ (Day 7),[4]; first patient,0
same,BIMF domain Management Δ (Day 7),[4]; first patient,5
same,BIMF domain Mother-Child Interaction Δ (Day 7),[4]; first patient,2
same,BIMF domain Psychological Well-being Δ (Day 7),[4]; first patient,9
same,BIMF domain Self-Care Δ (Day 7),[4]; first patient,4
same,BIMF domain Social Support Δ (Day 7),[4]; first patient,1
same,PES score,"[4]; first patient, 12 mg",85.7
same,Total MADRS improvement,"[4]; first patient, 2 hr",24
same,Total MADRS score,"[4]; first patient, 2 hr, baseline 29",5
same,BPRS item score,"[4]; first patient, Day 1",1
same,MADRS item score,"[4]; first patient, Day 1",0
same,Total MADRS improvement,"[4]; first patient, Day 1",29
same,Total MADRS score,"[4]; first patient, Day 1, baseline 29",0
same,BIMF domain Adjustment % improvement,"[4]; first patient, Day 7",20.00%
same,BIMF domain Infant Care % improvement,"[4]; first patient, Day 7",0.00%
same,BIMF domain Management % improvement,"[4]; first patient, Day 7",18% and 17.86%
same,BIMF domain Mother-Child Interaction % improvement,"[4]; first patient, Day 7",13.33%
same,BIMF domain Psychological Well-being % improvement,"[4]; first patient, Day 7",20.45%
same,BIMF domain Self-Care % improvement,"[4]; first patient, Day 7",44% and 44.44%
same,BIMF domain Social Support % improvement,"[4]; first patient, Day 7",5.88%
same,BIMF total score improvement,"[4]; first patient, Day 7",14%
same,BPRS item score,"[4]; first patient, Day 7",1
same,Total MADRS improvement,"[4]; first patient, Day 7",28
same,BIMF domain Adjustment score,"[4]; first patient, Day 7, Day 0 5",6
same,BIMF domain Self-Care score,"[4]; first patient, Day 7, Day 0 9, max 18",13
same,BIMF domain Infant Care score,"[4]; first patient, Day 7",12
same,BIMF domain Mother-Child Interaction score,"[4]; first patient, Day 7, Day 0 15, max 18",17
same,BIMF domain Social Support score,"[4]; first patient, Day 7, Day 0 17, max 18",18
same,BIMF domain Management score,"[4]; first patient, Day 7, Day 0 28",33
same,BIMF domain Psychological Well-being score,"[4]; first patient, Day 7, Day 0 44",53
same,BIMF TOTAL score,"[4]; first patient, Day 7, Day 0 92",105
same,Total MADRS score,"[4]; first patient, Day 7, baseline 29",1
same,BPRS item score,"[4]; first patient, Discharge",1
same,Time to clinical remission after administration,[4]; first patient,≤ 2 h
same,Reported adverse events,"[4]; first patient, cramping left abdominal pain and headache, Day 0","mild, short-lasting and resolved spontaneously"
same,PES score,"[4]; first patient, nominal dose 6 mg",17.3
same,BIMF TOTAL Δ (Day 7),[4]; second patient,45
same,BIMF domain Adjustment Δ (Day 7),[4]; second patient,9
same,BIMF domain Infant Care Δ (Day 7),[4]; second patient,0
same,BIMF domain Management Δ (Day 7),[4]; second patient,13
same,BIMF domain Mother-Child Interaction Δ (Day 7),[4]; second patient,7
same,BIMF domain Psychological Well-being Δ (Day 7),[4]; second patient,27
same,BIMF domain Self Care Δ (Day 7),[4]; second patient,10
same,BIMF domain Social Support Δ (Day 7),[4]; second patient,3
same,PES score,"[4]; second patient, 12 mg",94.7
same,Total MADRS score,"[4]; second patient, 2 hr, baseline 41",5
same,Total MADRS improvement,"[4]; second patient, 2 hrs",36
same,BPRS item score,"[4]; second patient, Day 1",1
same,MADRS item score,"[4]; second patient, Day 1",0
same,Total MADRS improvement,"[4]; second patient, Day 1",41
same,Total MADRS score,"[4]; second patient, Day 1, baseline 41",0
same,BIMF domain Adjustment % improvement,"[4]; second patient, Day 7",450%
same,BIMF domain Infant Care % improvement,"[4]; second patient, Day 7",0%
same,BIMF domain Management % improvement,"[4]; second patient, Day 7",76%
same,BIMF domain Mother-Child Interaction % improvement,"[4]; second patient, Day 7",70%
same,BIMF domain Psychological Well-being % improvement,"[4]; second patient, Day 7",113%
same,BIMF domain Self Care % improvement,"[4]; second patient, Day 7",333%
same,BIMF item score,"[4]; second patient, Day 7",6 and 5 and 4
same,BIMF total score improvement,"[4]; second patient, Day 7",over 40%
same,BPRS item score,[4]; [7],1
same,MADRS item score,[4]; [7],0
same,Total MADRS improvement,[4]; [7],41
same,Total MADRS score,"[4]; second patient, Day 7 (visit on day 5), baseline 41",0
same,BIMF domain Adjustment score,"[4]; second patient, Day 7, Day 0 2",11
same,BIMF domain Self Care score,"[4]; second patient, Day 7, Day 0 3, max 18",13
same,BIMF domain Mother-Child Interaction score,"[4]; second patient, Day 7, Day 0 10, max 18",17
same,BIMF domain Social Support score,"[4]; second patient, Day 7, Day 0 11, max 18",14
same,BIMF domain Infant Care score,"[4]; second patient, Day 7",12
same,BIMF domain Management score,"[4]; second patient, Day 7, Day 0 17",30
same,BIMF domain Psychological Well-being score,"[4]; second patient, Day 7, Day 0 24",51
same,BIMF TOTAL score,"[4]; second patient, Day 7, Day 0 59 (table)",104
same,BPRS item score,"[4]; second patient, Discharge",1
same,Time to clinical remission after administration,[4]; second patient,≤ 2 h
same,PES score,"[4]; second patient, nominal dose 6 mg",1
same,Reported adverse events,"[4]; second patient, vomiting Day 0, headache Day 5","mild, short-lasting and resolved spontaneously"
same,Daily Infant Dosage (DID) per kg,"[5]; 5 kg infant, three feeds of 250 ml",0.0001385 mg/kg/day
same,concentration at 1 h,[5]; [8],2.17 ng/mL
same,concentration at 2.5 h,[5]; [8],0.561 ng/mL
same,concentration at 8.5 h,[5]; [8],0.0421 ng/mL
same,concentration at 1 h,"[5]; female, human, serum, inhaled",0.133 ng/mL
same,Breastmilk concentration,[5]; 1.0 hrs after last dose,2167 pg/mL
same,Serum concentration,[5]; 2.5 hrs after last dose,BLQ (Below limit of quantification. The lower limit of quantification is 25 pg/ml for both 5-MeO-DMT and 5-MIAA in both serum and breastmilk; it is 25 pg/ml in urine for 5-MeO-DMT and 250 pg/ml for 5-MIAA in urine.)
same,Urine concentration,[5]; 8.5 hrs after last dose,BLQ (Below limit of quantification. The lower limit of quantification is 25 pg/ml for both 5-MeO-DMT and 5-MIAA in both serum and breastmilk; it is 25 pg/ml in urine for 5-MeO-DMT and 250 pg/ml for 5-MIAA in urine.)
same,Breastmilk concentration,[5]; 24.0 hrs after last dose,did not detect and BLG
same,Serum concentration,[5]; 24.0 hrs after last dose,BLQ (Below limit of quantification. The lower limit of quantification is 25 pg/ml for both 5-MeO-DMT and 5-MIAA in both serum and breastmilk; it is 25 pg/ml in urine for 5-MeO-DMT and 250 pg/ml for 5-MIAA in urine.)
same,Urine concentration,[5]; 24.0 hrs after last dose,BLQ (Below limit of quantification. The lower limit of quantification is 25 pg/ml for both 5-MeO-DMT and 5-MIAA in both serum and breastmilk; it is 25 pg/ml in urine for 5-MeO-DMT and 250 pg/ml for 5-MIAA in urine.)
same,Breastmilk concentration,[5]; 120.0 hrs after last dose,BLQ (Below limit of quantification. The lower limit of quantification is 25 pg/ml for both 5-MeO-DMT and 5-MIAA in both serum and breastmilk; it is 25 pg/ml in urine for 5-MeO-DMT and 250 pg/ml for 5-MIAA in urine.)
same,Serum concentration,[5]; 120.0 hrs after last dose,BLQ (Below limit of quantification. The lower limit of quantification is 25 pg/ml for both 5-MeO-DMT and 5-MIAA in both serum and breastmilk; it is 25 pg/ml in urine for 5-MeO-DMT and 250 pg/ml for 5-MIAA in urine.)
same,Urine concentration,[5]; 120.0 hrs after last dose,BLQ (Below limit of quantification. The lower limit of quantification is 25 pg/ml for both 5-MeO-DMT and 5-MIAA in both serum and breastmilk; it is 25 pg/ml in urine for 5-MeO-DMT and 250 pg/ml for 5-MIAA in urine.)
same,Breastmilk concentration,[5]; −24.0 hrs (pre-dosing),BLQ (Below limit of quantification. The lower limit of quantification is 25 pg/ml for both 5-MeO-DMT and 5-MIAA in both serum and breastmilk; it is 25 pg/ml in urine for 5-MeO-DMT and 250 pg/ml for 5-MIAA in urine.)
same,Serum concentration,[5]; −24.0 hrs (pre-dosing),BLQ (Below limit of quantification. The lower limit of quantification is 25 pg/ml for both 5-MeO-DMT and 5-MIAA in both serum and breastmilk; it is 25 pg/ml in urine for 5-MeO-DMT and 250 pg/ml for 5-MIAA in urine.)
same,Urine concentration,[5]; −24.0 hrs (pre-dosing),BLQ (Below limit of quantification. The lower limit of quantification is 25 pg/ml for both 5-MeO-DMT and 5-MIAA in both serum and breastmilk; it is 25 pg/ml in urine for 5-MeO-DMT and 250 pg/ml for 5-MIAA in urine.)
same,fraction unbound at 4 h,[6]; human plasma,0.77 to 0.87
same,"fraction unbound at 4 h, 0.1 μM","[6]; human, 0.1 μM, 4-hour dialysis, read-out: Free Fraction in human plasma",0.787
same,"fraction unbound at 4 h, 1 μM","[6]; human, 1 μM, 4-hour dialysis, read-out: Free Fraction in human plasma",0.773
same,"fraction unbound at 4 h, 10 μM","[6]; human, 10 μM, 4-hour dialysis, read-out: Free Fraction in human plasma",0.87

# From US20240108601A1, “TREATMENT OF MENTAL DISORDERS” (GH Research Ireland Limited, priority 2022, published 2024)
